Drawing on PMC10766964, “Copper-catalyzed synthesis of pyrazolo[1,5-a]pyrimidine based triazole-linked glycohybrids: mechanistic insights and bio-applications” (Scientific Reports, 2024), this text covers viability for 1 molecule.

For series [1], the system named is MCF-7 (hormone receptor/HR-positive breast cancer cells). Nature of the series: MTT cell viability assay in MCF-7 cells. The class given is cell-based. The note with it: Homo sapiens, MCF7; MCF-7, positive control at 20 nM; read-out: Cell viability (%) ± SD. The protocol:
MDA-MB-231 represents a specific subtype known as triple-negative breast cancer (TNBC). The investigation study was extended with active six hit compounds (9a, 9d, 9h, 10d, 10f, and 11g) in two other different cancer cell lines (MCF-7 and MDA-MB-453), each representing a separate class of breast cancers (MCF-7: hormone receptor/HR-positive; MDA-MB-453: human epidermal growth factor 2 receptor/HER2 positive).
We also included normal mammary epithelial MCF-10A cells in our experiments to confirm if the growth-inhibitory activities of the selected compounds are truly cancer cell-specific. The activity data from MCF-7 and MDA-MB-453 cell lines (tested at 1 µM, 10 µM and 25 µM) and activity data from MCF-10A cell line (tested at 25 µM, 50 µM and 100 µM) are summarized in Table 3.
To evaluate cell viability, the MTT assay was conducted following standard procedures. After 72 h of cell incubation with or without each compound, cell viability was assessed using MTT (3-(4,5-dimethylthiazol-2-yl)-2,5-diphenyltetrazolium bromide), which is a colorimetric method for determining the number of viable cells in various assays including proliferation, cytotoxicity, or chemosensitivity. The MTT reagent was added to the cells after removal of the medium and incubated for 3 h at 37 °C in the CO2 incubator. The formazan product, which is […] in the tissue culture medium, was dissolved in DMSO, and the absorbance of the formazan product was directly measured at 595 nm using a multimode plate reader without additional processing. The absorbance values are directly proportional to the number of viable cells in culture. The percentage of viable cells in each group was determined relative to the untreated control cells.
For orientation: Formazan colour is commonly taken as a measure of viable cells.

The test system of series [2] is MDA-MB-231 (human breast cancer) cell line. Nature of the series: MTT cell viability assay in MDA-MB-231 cells. The series is classed as cell-based. To be noted: 72 h, positive control at 20 nM. The protocol: Thus, we screened the synthesized library of pyrazolo[1,5-a]pyrimidin-7-ols 4a–4i. Anticancer activity (in terms of growth inhibition/decreased cell viability with respect to control) of all synthesized compounds (n = 9) was investigated by MTT assay in MDA-MB-231 (human breast cancer) cell line at different concentrations for 72 h. […] Thus, it was aimed to investigate the anticancer activity of a synthesized library of triazole-linked glycohybrids of pyrazolo[1,5-a]pyrimidines. […] The MTT assay was used to investigate the anticancer activity of twenty-seven synthesized compounds on the growth inhibition and decrement in cell viability of MDA-MB-231 (human breast cancer). Different concentrations were tested for 72 h, and the results were compared to a control. MDA-MB-231, a human breast cancer cell line, was cultured under standard conditions. Specifically, they were grown in Dulbecco’s Modified Eagle’s Medium (DMEM) supplemented with 10% heat-inactivated Fetal Bovine Serum (FBS) and 1% penicillin–streptomycin. The cells were maintained as a monolayer in a 100 mm culture plate and were used for experiments before reaching their 8th passage. Subculturing was performed every third-day using trypsin EDTA treatment. All incubation and maintenance procedures were carried out in a humidified CO2 incubator at 37 °C. To evaluate cell viability, the MTT assay was conducted following standard procedures. After 72 h of cell incubation with or without each compound, cell viability was assessed using MTT (3-(4,5-dimethylthiazol-2-yl)-2,5-diphenyltetrazolium bromide), which is a colorimetric method for determining the number of viable cells in various assays including proliferation, cytotoxicity, or chemosensitivity. The MTT reagent was added to the cells after removal of the medium and incubated for 3 h at 37 °C in the CO2 incubator. The formazan product, which is […] in the tissue culture medium, was dissolved in DMSO, and the absorbance of the formazan product was directly measured at 595 nm using a multimode plate reader without additional processing. The absorbance values are directly proportional to the number of viable cells in culture. The percentage of viable cells in each group was determined relative to the untreated control cells.

Series [3] relates to MDA-MB-453 (HER2 positive breast cancer cells). Nature of the series: MTT cell viability assay in MDA-MB-453 cells. The class given is cell-based, human. The note with it: Homo sapiens; MDA-MB-453, positive control at 20 nM; read-out: Cell viability (%) ± SD. As for the experimental part:
MDA-MB-231 represents a specific subtype known as triple-negative breast cancer (TNBC). The investigation study was extended with active six hit compounds (9a, 9d, 9h, 10d, 10f, and 11g) in two other different cancer cell lines (MCF-7 and MDA-MB-453), each representing a separate class of breast cancers (MCF-7: hormone receptor/HR-positive; MDA-MB-453: human epidermal growth factor 2 receptor/HER2 positive). […] We also included normal mammary epithelial MCF-10A cells in our experiments to confirm if the growth-inhibitory activities of the selected compounds are truly cancer cell-specific. The activity data from MCF-7 and MDA-MB-453 cell lines (tested at 1 µM, 10 µM and 25 µM) and activity data from MCF-10A cell line (tested at 25 µM, 50 µM and 100 µM) are summarized in Table 3. To evaluate cell viability, the MTT assay was conducted following standard procedures. After 72 h of cell incubation with or without each compound, cell viability was assessed using MTT (3-(4,5-dimethylthiazol-2-yl)-2,5-diphenyltetrazolium bromide), which is a colorimetric method for determining the number of viable cells in various assays including proliferation, cytotoxicity, or chemosensitivity. The MTT reagent was added to the cells after removal of the medium and incubated for 3 h at 37 °C in the CO2 incubator. The formazan product, which is […] in the tissue culture medium, was dissolved in DMSO, and the absorbance of the formazan product was directly measured at 595 nm using a multimode plate reader without additional processing. The absorbance values are directly proportional to the number of viable cells in culture. The percentage of viable cells in each group was determined relative to the untreated control cells.

A short description of series [4]: MTT cell viability assay in normal MCF-10A cells. The series is classed as cell-based. The note with it: human, MCF-10A normal mammary epithelial cells; MCF-10A normal cells, positive control at 20 nM; read-out: Cell viability (%) ± SD. The protocol:
We also included normal mammary epithelial MCF-10A cells in our experiments to confirm if the growth-inhibitory activities of the selected compounds are truly cancer cell-specific. The activity data from MCF-7 and MDA-MB-453 cell lines (tested at 1 µM, 10 µM and 25 µM) and activity data from MCF-10A cell line (tested at 25 µM, 50 µM and 100 µM) are summarized in Table 3. To evaluate cell viability, the MTT assay was conducted following standard procedures. After 72 h of cell incubation with or without each compound, cell viability was assessed using MTT (3-(4,5-dimethylthiazol-2-yl)-2,5-diphenyltetrazolium bromide), which is a colorimetric method for determining the number of viable cells in various assays including proliferation, cytotoxicity, or chemosensitivity. The MTT reagent was added to the cells after removal of the medium and incubated for 3 h at 37 °C in the CO2 incubator. The formazan product, which is […] in the tissue culture medium, was dissolved in DMSO, and the absorbance of the formazan product was directly measured at 595 nm using a multimode plate reader without additional processing. The absorbance values are directly proportional to the number of viable cells in culture. The percentage of viable cells in each group was determined relative to the untreated control cells.

Where two headings read alike, the source gives them in different places.

Broadly, the viability is the share of living cells, or the viability signal relative to a control.

`COCCn1c2c([n+](Cc3cnccn3)c1C)C(=O)c1ccccc1C2=O` [YM155, reference compound]: the viability at 0.02 µM was 32.2 ± 1.7% in series [1]; 20.4 ± 5.13% in series [2] (Table 1, MDA-MB-231, MTT, read-out: Cell Viability (%) ± SD); 26.4 ± 3.93% in series [2] (Table 2, MDA-MB-231, MTT, read-out: Cell viability (%) ± SD); 35.2 ± 1.5% in series [3]. In addition, the viability at 72 h, 0.02 µM in series [4] was 38.2 ± 1.6%.
